SMILES strings stand for the structures. Structures can show the parent of a compound that is named as a salt.

These results are taken from US4045290A, “Diagnostic method and compounds for use therewith” (Princeton Biomedix Incorporated, priority 1976, dated 1977).

The subject of data set [1] is alkaline phosphatase. The data set can be described thus: Kinetic rate of Thymol Blue release at 600 nm from substrate with serum alkaline phosphatase. It is filed as biochemical. The settings on record: for absorbance rate at 600 nm: 0.1 ml Validate A, 25° C. How it is done:
According to the test procedure of the subject invention, Thymol Blue Monophosphate is hydrolyzed by alkaline phosphatase to Thymol Blue in the presence of phosphorylatable diethanolamine buffer at pH 10.2. The color produced as a result thereof is proportional to enzyme present and the average change in absorbance per minute (ΔA/min) is determined at a wavelength of 600 nm.
Other amino alcohol buffers which can be phosphorylated and which can be used in this test are, for example, 2-ethylaminoethanol, 3-dimethylamino-1, 2-propanediol, 2-methylaminoethanol, those listed by Elias Amador, Clinical Chemistry, 18, 94 (1972) and the like. The amino alcohol buffer is present in an amount sufficient to raise the pH of the reaction mixture to about 10.2. The magnesium activator is used in an amount sufficient to activate the alkaline phosphatase enzyme in the sample to be tested. The concentration of magnesium ion in the substrate reagent is about 1.5 millimoles per liter. The concentration of Thymol Blue Monophosphate in the reagent is not critical but must be sufficient to permit a kinetic reaction to proceed over a period of time without the substrate being exhausted. The preferred concentration of this material is between 1 and 3 millimoles per liter. The serum sample to be tested is contacted with the substrate reagent at a given temperature which may be from about 22° to about 40° C. but preferably at 30° C. or 37° C. While the temperature affects the rate of reaction, the particular temperature used, within the limits of the stability of the sample, is not critical hereto. The average change in absorbance per minute (ΔA/min) at 600 nm is then determined in a spectrophotometer capable of reading absorbance at 600 nm and maintaining constant temperature in the cuvet compartment. By definition, one unit of alkaline phosphatase activity is the amount of enzyme that will hydrolyze one micromole of Thymol Blue Monophosphate to Thymol Blue in one minute at 30° C. The enzyme activity is calculated by the following formula: [formula] where: U/liter =units of enzyme activity per liter at 30° C.

The nature of data set [2]: Storage stability of substrate / reagent (absorbance at 600 nm, TLC). It is filed as physicochemical.
The nature of data set [3]: Solubility and physical properties. It is filed as physicochemical.
Data set [4] addresses T1, alkaline phosphatase (Homo sapiens, UniProt P05186).
T1 construct: from tissue; host or cells: serum
T1 sequence (P05186 18-501 limits assumed): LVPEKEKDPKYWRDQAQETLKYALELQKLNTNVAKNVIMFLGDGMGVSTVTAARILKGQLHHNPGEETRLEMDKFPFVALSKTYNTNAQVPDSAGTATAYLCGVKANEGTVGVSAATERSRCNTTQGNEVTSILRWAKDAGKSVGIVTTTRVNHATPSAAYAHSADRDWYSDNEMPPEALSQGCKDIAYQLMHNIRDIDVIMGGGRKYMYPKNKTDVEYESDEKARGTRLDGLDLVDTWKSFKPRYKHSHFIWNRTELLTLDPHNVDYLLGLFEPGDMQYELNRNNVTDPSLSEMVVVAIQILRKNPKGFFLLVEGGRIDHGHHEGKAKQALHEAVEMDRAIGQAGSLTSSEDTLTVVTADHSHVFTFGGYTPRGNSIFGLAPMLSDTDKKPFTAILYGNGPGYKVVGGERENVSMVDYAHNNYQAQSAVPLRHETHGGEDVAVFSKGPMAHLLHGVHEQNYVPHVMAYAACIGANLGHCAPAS
The data set can be described thus: Serum Alkaline Phosphatase End Point Assay. It is filed as biochemical. To be noted: 1 ml reagent + 0.1 ml serum sample, 10 minutes at 37° C., stopped with NaOH/Na2CO3. How it is done:
If so desired an end-point procedure may be employed for determination of serum alkaline phosphatase activity employing Thymol Blue Monophosphate as the substrate. In this instance, the test serum sample is added to the diethanolamine buffered Thymol Blue Monophosphate substrate solution and the reaction is terminated after 10 minutes time by addition of an alkaline reagent such as, for example, 0.1M NaOH and 0.1M Na2 CO3. The absorbance of the sample is read at 600 nm and the enzyme activity is determined from a standard curve prepared from a Thymol Blue standard. The standard curve is prepared by measuring absorbance of dilutions of a known standard and plotting the measured absorbance against the calculated enzyme activity in units per liter.
A substrate for measurement of alkaline phosphatase by the end-point method prepared identical to that of example XVI. One ml of the reagent was placed in a suitable 10 ml tube for measurement of the test specimen and one ml of the reagent was placed in a second tube for measurement of the reagent blank. […] The reagent blank solution was used to set the spectrophotometer at 0 absorption and the specimen tube was then measured and found to have an absorption of 0.329 at 600 nm. From a standard curve constructed from known concentrations of Thymol Blue an activity of alkaline phosphatase of 38 U/liter was determined.

The next data set deals with acid phosphatase. The data set can be described thus: Acid Phosphatase - End Point Assay. It is filed as biochemical. To be noted: 1.2 mmol/liter substrate, 20 minutes 37° C. How it is done:
An end-point procedure may be employed for determination of acid phosphatase activity employing Thymol Blue Monophosphate as the substrate. In this instance, the test serum sample is added to a Thymol Blue Monophosphate solution buffered to a pH of about 5 and the reaction is terminated by addition of an alkaline reagent after 20 minutes reaction time. The absorbance of the sample is then read at 600 nm and the acid phosphatase enzyme activity is determined from a standard curve prepared from a Thymol Blue standard as described above.
A reagent was prepared containing 1.2 mmol/liter of Thymol Blue Monophosphate, 0.05 M Citrate buffer pH 5.0, and 0.1 % non inonic detergent, Tergitol NPX (Union Carbide Corporation).
One ml of this substrate reagent solution was placed in each of two test tubes which were warmed to 37° C. for 5 minutes. To one of the test tubes was added 0.2 ml of a serum sample containing an elevated level of acid phosphatase. The mixture was then permitted to stand at 37° C. for 20 minutes at which time 3.0 mls of alkali reagent (0.1 m Na2 CO3 + 0.1M NaOH) was added to stop the reaction. […]
The absorption of each solution was measured at 600 nm against distilled water. […] From standard curve, the acid phosphatase activity of the serum was calculated to be 6.5 U/liter.

Where [5] appears, read: substrate (not freeze-dried) in DEA buffer.

On to `Cc1cc(O)c(C(C)C)cc1C1(c2cc(C(C)C)c(OP(=O)(O)O)cc2C)OS(=O)(=O)c2ccccc21` (stereo not drawn) [I, Thymol Blue Monophosphate, Sodium Salt Solution], for which the “rate of reaction at 600 nm” value with alkaline phosphatase [1] (2 ml working reagent (DEA buffer pH 10.2) + 50 μl Validate A control serum, 30° C.) is 0.0308 min⁻¹.

As to `Cc1cc(O)c(C(C)C)cc1C1(c2cc(C(C)C)c(OP(=O)(O)O)cc2C)OS(=O)(=O)c2ccccc21` (stereo not drawn) [IV, Thymol Blue Monophosphate in Diethanolamine Buffer], in the data set with alkaline phosphatase [1] (2.9 ml test volume in 1.0M DEA buffer pH 10.2, 0.1 ml Lederzyme Control Sera, 30° C.), the “rate at 600 nm” value came to 0.037 min⁻¹. Also, in data set [2] (2.9 ml test volume, 1.0M DEA buffer pH 10.2, fresh), the “absorbance at 600 nm of buffered substrate, initial” value came out at 0.131. Also, in data set [2] (frozen, 6 months), the “frozen buffered substrate after storage (absorbance)” value is “remained unchanged”. In addition, the “activity toward alkaline phosphatase after storage” value in data set [2] (refrigerated at 2° to 8° C. over 6 months) is “remained unchanged”. Also, the “absorbance at 600 nm of buffered substrate after storage” value in data set [2] (refrigerated at 2° to 8° C. over 6 months, increase due to gradual hydrolysis) is on record as “approximately 0.550”.

As to `Cc1cc(O)c(C(C)C)cc1C1(c2cc(C(C)C)c(OP(=O)(O)O)cc2C)OS(=O)(=O)c2ccccc21` (stereo not drawn) [VIII, Sodium Thymol Blue Monophosphate Solution], the “rate at 600 nm” value in the data set on alkaline phosphatase [1] (1 ml substrate solution + 1 ml 0.6 M DEA buffer pH 10.2, 0.1 ml Validate A, temperature not given) stood at 0.0758 min⁻¹. In addition, in data set [3] (yellow orange solid), the “solubility in absolute ethanol” value is recorded as “slightly soluble” and the solubility in water result is given as “readily soluble”.

Consider `Cc1cc(O)c(C(C)C)cc1C1(c2cc(C(C)C)c(OP(=O)(O)O)cc2C)OS(=O)(=O)c2ccccc21` (stereo not drawn) [X, Thymol Blue Monophosphate Cyclohexylammonium Salt], for which the “absorbance rate at 600 nm” value with alkaline phosphatase [1] (setting [5]) was determined as 0.0427 min⁻¹. For the same compound, in data set [2] (after one month standing at room temperature), the “stability of solid by TLC” value is recorded as “Thymol Blue was detected on TLC indicating decomposition”. The hygroscopicity entry in data set [3] (orange solid product) is “hygroscopic”.

Regarding `Cc1cc(O)c(C(C)C)cc1C1(c2cc(C(C)C)c(OP(=O)(O)O)cc2C)OS(=O)(=O)c2ccccc21` (stereo not drawn) [XI, Thymol Blue Monophosphate Sodium Salt Solution], the “absorbance rate at 600 nm” value with alkaline phosphatase [1] (setting [5]) came out at 0.0577 min⁻¹.

With `Cc1cc(O)c(C(C)C)cc1C1(c2cc(C(C)C)c(OP(=O)(O)O)cc2C)OS(=O)(=O)c2ccccc21` (stereo not drawn) [III, Phosphorylated Thymol Blue], the “absorbance rate (ΔA/min.) at 600 nm” value with alkaline phosphatase [1] (2 mg solid in 2.9 ml diethanolamine buffer pH 10.2, 0.1 ml Validate A) is 0.0180 min⁻¹; in the data set on alkaline phosphatase [1] (5 mg sample in diethanolamine buffer pH 10.2, 0.1 ml Validate A) it was 0.028 min⁻¹.

Regarding `Cc1cc(O)c(C(C)C)cc1C1(c2cc(C(C)C)c(OP(=O)(O)O)cc2C)OS(=O)(=O)c2ccccc21` (stereo not drawn) [Thymol Blue Monophosphate], the “change in absorbance (ΔA/min) at 600 nm” value with alkaline phosphatase [1] (2 ml substrate 1.5 mmol/liter, DEA buffer pH 10.2, MgCl2, 0.05 ml serum to be tested, 30° C.) was determined as 0.022. Moreover, the “absorption at 600 nm of specimen tube against reagent blank” value at alkaline phosphatase [4] turned out to be 0.329. In addition, in the data set with acid phosphatase (citrate buffer pH 5.0, 0.2 ml serum with elevated acid phosphatase, against distilled water), the “absorption at 600 nm of test serum sample” value was determined as 0.364. Further, the “net increase in absorption over blank” value in the data set with acid phosphatase (citrate buffer pH 5.0, 0.2 ml serum) worked out at 0.253 absorption units.

With `Cc1cc(O)c(C(C)C)cc1C1(c2cc(C(C)C)c(OP(=O)(O)O)cc2C)OS(=O)(=O)c2ccccc21` (stereo not drawn) [XIII, Thymol Blue Monophosphate, Tris (hydroxymethyl)aminomethane Salt], in the data set on alkaline phosphatase [1] (aqueous solution of the salt, clear amber liquid), the “substrate activity with alkaline phosphatase” value is recorded as “potent substrate activity”. For the same compound, the entries for the “absorbance rate at 600 nm” value with alkaline phosphatase [1] (freeze-dried reagent reconstituted) and with alkaline phosphatase [1] (setting [5]) were 0.0552 min⁻¹ and 0.0600 min⁻¹, respectively.

On to `Cc1cc(O)c(C(C)C)cc1C1(c2cc(C(C)C)c(OP(=O)(O)O)cc2C)OS(=O)(=O)c2ccccc21` (stereo not drawn) [XII, Thymol Blue Monophosphate Ammonium Salt], for which, in the data set on alkaline phosphatase [1] (substrate (not freeze-dried) in DEA buffer, Monophosphate Ammonium Salt), the “absorbance rate at 600 nm” value came to 0.0486 min⁻¹.

With `Cc1cc(O)c(C(C)C)cc1C1(c2cc(C(C)C)c(OP(=O)(O)O)cc2C)OS(=O)(=O)c2ccccc21` (stereo not drawn) [II, Thymol Blue Monophosphate (AMPD Salt)], the “performance as substrate for alkaline phosphatase (release of Thymol Blue)” value with alkaline phosphatase [1] (pH 10.2 diethanolamine buffer with magnesium chloride, sera containing alkaline phosphatase) is “performed as a substrate for alkaline phosphatase”.
